Data as given in ChEMBL document CHEMBL5344419, “Synthesis and characterization of the N-succinyl-l,l-diaminopimelic acid desuccinylase (DapE) alternate substrate analog N,N-dimethyl-l,l-SDAP” (Bioorg Med Chem, 2023).
Active and inactive are the calls of the source. The calls are words filed in the database; no cut-off is given here.

T1: Succinyl-diaminopimelate desuccinylase (Haemophilus influenzae (strain ATCC 51907 / DSM 11121 / KW20 / Rd), UniProt P44514)
T1 sequence (P44514 whole entry): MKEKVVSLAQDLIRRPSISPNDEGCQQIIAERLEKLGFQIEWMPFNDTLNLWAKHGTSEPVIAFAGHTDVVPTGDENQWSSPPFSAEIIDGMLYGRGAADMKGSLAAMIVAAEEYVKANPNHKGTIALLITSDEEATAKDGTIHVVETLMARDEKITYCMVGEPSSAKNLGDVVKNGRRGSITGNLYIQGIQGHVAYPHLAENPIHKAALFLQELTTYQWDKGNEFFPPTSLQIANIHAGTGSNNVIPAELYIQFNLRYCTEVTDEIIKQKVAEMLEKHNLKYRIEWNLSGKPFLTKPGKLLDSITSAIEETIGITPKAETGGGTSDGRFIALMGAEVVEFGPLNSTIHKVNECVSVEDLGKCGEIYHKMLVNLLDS

T2: Succinyl-diaminopimelate desuccinylase (Haemophilus influenzae (strain ATCC 51907 / DSM 11121 / KW20 / Rd)) (UniProt P44514)
T2 sequence (whole entry): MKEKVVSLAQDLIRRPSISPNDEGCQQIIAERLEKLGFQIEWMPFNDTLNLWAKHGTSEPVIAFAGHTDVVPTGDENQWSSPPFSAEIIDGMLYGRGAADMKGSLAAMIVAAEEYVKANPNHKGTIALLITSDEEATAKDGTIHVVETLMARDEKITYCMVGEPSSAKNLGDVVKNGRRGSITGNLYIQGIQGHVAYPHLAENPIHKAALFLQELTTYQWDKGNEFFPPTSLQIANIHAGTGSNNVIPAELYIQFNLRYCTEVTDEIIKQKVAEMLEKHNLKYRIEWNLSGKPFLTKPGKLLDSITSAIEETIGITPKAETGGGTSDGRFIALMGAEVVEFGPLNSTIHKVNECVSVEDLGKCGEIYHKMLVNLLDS


Experiments:
[1] = target: T1, Succinyl-diaminopimelate desuccinylase; assay: Inhibition of Haemophilus influenzae DapE at 80 degreeC incubated for 15 mins by ninhydrin based assay
[2] = target: T1, Succinyl-diaminopimelate desuccinylase; assay: Inhibition of Haemophilus influenzae DapE at 100 degreeC incubated for 10 mins by ninhydrin based assay
[3] = target: T2, Succinyl-diaminopimelate desuccinylase (Haemophilus influenzae (strain ATCC 51907 / DSM 11121 / KW20 / Rd)); assay: Thermal stabilization of Haemophilus influenzae DapE assessed as increase in second melting temperature by SYPRO orange dye based thermal shift assay
[4] = target: T1, Succinyl-diaminopimelate desuccinylase; assay: Binding affinity to Haemophilus influenzae DapE assessed as dissociation constant
[5] = target: T2, Succinyl-diaminopimelate desuccinylase (Haemophilus influenzae (strain ATCC 51907 / DSM 11121 / KW20 / Rd)); assay: Thermal stabilization of Haemophilus influenzae DapE assessed as increase in first melting temperature by SYPRO orange dye based thermal shift assay
[6] = substrate: CN(C)[C@@H](CCC[C@H](NC(=O)CCC(=O)O)C(=O)O)C(=O)O; assay: (§1) Substrate activity at Haemophilus influenzae DapE assessed as Kcat/Km incubated for 10 mins by ninhydrin based assay
[7] = substrate: CN[C@@H](CCC[C@H](NC(=O)CCC(=O)O)C(=O)O)C(=O)O; assay: as §1
[8] = substrate: CN(C)[C@@H](CCC[C@H](NC(=O)CCC(=O)O)C(=O)O)C(=O)O; assay: Substrate activity at Haemophilus influenzae DapE assessed as Kcat/Km at 80 DegreeC incubated for 15 mins by ninhydrin based assay
[9] = substrate: CN(C)[C@@H](CCC[C@H](NC(=O)CCC(=O)O)C(=O)O)C(=O)O; assay: Substrate activity at Haemophilus influenzae DapE assessed as Kcat/Km at 100 DegreeC incubated for 10 mins by ninhydrin assay

IC50 [1] [µM] | IC50 [2] [µM] | ΔTm [3] [°C] | Kd [4] [µM] | Activity [5] | Molecule | kcat/Km [6] | kcat/Km [7] | kcat/Km [8] | kcat/Km [9]
0.89 | 1.5 | 3 | 1320 | Active | CN(C)[C@@H](CCC[C@H](NC(=O)CCC(=O)O)C(=O)O)C(=O)O | – | – | – | –
– | – | – | – | Active | CN[C@@H](CCC[C@H](NC(=O)CCC(=O)O)C(=O)O)C(=O)O | – | – | – | –
– | – | – | – | – | Succinyl-diaminopimelate desuccinylase (Haemophilus influenzae (strain ATCC 51907 / DSM 11121 / KW20 / Rd)), P44514 (protein) MKEKVVSLAQDLIRRPSISPNDEGCQQIIAERLEKLGFQIEWMPFNDTLNLWAKHGTSEPVIAFAGHTDVVPTGDENQWSSPPFSAEIIDGMLYGRGAADMKGSLAAMIVAAEEYVKANPNHKGTIALLITSDEEATAKDGTIHVVETLMARDEKITYCMVGEPSSAKNLGDVVKNGRRGSITGNLYIQGIQGHVAYPHLAENPIHKAALFLQELTTYQWDKGNEFFPPTSLQIANIHAGTGSNNVIPAELYIQFNLRYCTEVTDEIIKQKVAEMLEKHNLKYRIEWNLSGKPFLTKPGKLLDSITSAIEETIGITPKAETGGGTSDGRFIALMGAEVVEFGPLNSTIHKVNECVSVEDLGKCGEIYHKMLVNLLDS | 3.49 10^5/M/s | 4.4 10^5/M/s | 3.49 10^5/M/s | 4.03 10^5/M/s
